Laboratory results reported in patent publication US20090281152A1, “Indole Compounds Having Affinity to the EP1 Receptor” (priority 2006, published 2009).

Experiments:
human EP3 receptor = target: T1, human EP3 receptor (Homo sapiens, UniProt P43115); test: human EP3 calcium mobilisation assay (FLIPR, CHO-K1 cells); type: cell-based; conditions: antagonism of PGE2-induced calcium mobilisation, averages of a number of experiments, read-out: functional pKi (converted)
T1 construct: expressed in transfected cells; host or cells: CHO-K1 cells, pCIN vector
T1 sequence (P43115 1-390): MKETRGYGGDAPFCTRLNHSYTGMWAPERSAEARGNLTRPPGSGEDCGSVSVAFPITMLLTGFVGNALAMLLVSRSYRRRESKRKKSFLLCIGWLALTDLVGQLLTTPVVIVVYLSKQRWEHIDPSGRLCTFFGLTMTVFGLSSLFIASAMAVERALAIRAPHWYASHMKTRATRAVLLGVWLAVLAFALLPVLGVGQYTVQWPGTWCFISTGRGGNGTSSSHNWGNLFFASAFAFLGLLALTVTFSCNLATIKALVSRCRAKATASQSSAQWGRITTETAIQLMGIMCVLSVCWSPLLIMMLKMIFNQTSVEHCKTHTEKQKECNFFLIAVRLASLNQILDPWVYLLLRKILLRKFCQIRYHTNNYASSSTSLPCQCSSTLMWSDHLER
Method: Briefly, the antagonist properties of compounds are assessed by their ability to inhibit the mobilisation of intracellular calcium ([Ca^2+]i) in response to activation of EP1 or EP3 receptors by the natural agonist hormone prostaglandin E2 (PGE2). Increasing concentrations of antagonist reduce the amount of calcium that a given concentration of PGE2 can mobilise. The net effect is to displace the PGE2 concentration-effect curve to higher concentrations of PGE2. The amount of calcium produced is assessed using a calcium-sensitive fluorescent dye such as Fluo-4, AM and a suitable instrument such as a Fluorimetric Imaging Plate Reader (FLIPR). Increasing amounts of [Ca^2+]i produced by receptor activation increase the amount of fluorescence produced by the dye and give rise to an increasing signal. The signal may be detected using the FLIPR instrument and the data generated may be analysed with suitable curve-fitting software.
The human EP1 or EP3 calcium mobilisation assay (hereafter referred to as ‘the calcium assay’) utilises Chinese hamster ovary-K1 (CHO-K1) cells into which a stable (pCIN; BioTechniques 20 (1996): 102-110) vector containing either EP1 or EP3 cDNA has previously been transfected. Cells are cultured in suitable flasks containing culture medium such as DMEM:F-12 supplemented with 10% v/v foetal calf serum, 2 mM L-glutamine, 0.25 mg/ml geneticin, 100 μM flurbiprofen and 10 μg/ml puromycin.
For assay, cells are harvested using a proprietary reagent that dislodges cells such as Versene. Cells are re-suspended in a suitable quantity of fresh culture media for introduction into a 384-well plate. Following incubation for 24 hours at 37° C. the culture media is replaced with a medium containing Fluo-4 and the detergent pluronic acid, and a further incubation takes place. Concentrations of compounds are then added to the plate in order to construct concentration-effect curves. This may be performed on the FLIPR in order to assess the agonist properties of the compounds. […]
The data so generated may be analysed by means of a computerised curve-fitting routine. […]

[1] = system: rat model of chronic constriction injury; conditions: Anesthesia and Analgesia 2001, 93, 1012-7; cited from earlier work
[2] = system: rodent model of post-operative pain; conditions: Anesthesia and Analgesia 2001, 92, 233-238; cited from earlier work

Ki (human EP3 receptor)	Structure (SMILES)	hyperalgesia and allodynia [1]	mechanical hyperalgesia [2]
≥ 1 µM	CC(C)Cn1cc(-c2nc(C(=O)O)cs2)c2cc(Cl)ccc21 [Example 7, 2-[5-Chloro-1-(2-methylpropyl)-1H-indol-3-yl]-1,3-thiazole-4-carboxylic acid]		
≥ 1 µM	CC(C)Cn1cc(-c2nc(C(=O)O)co2)c2cc(Cl)ccc21 [Example 8, 2-[5-Chloro-1-(2-methylpropyl)-1H-indol-3-yl]-1,3-oxazole-4-carboxylic acid]		
> 0.316 µM	Cc1ccc2c(c1)c(-c1nc(C(=O)NS(=O)(=O)c3ccccc3)co1)cn2CC(C)C [Example 10, 2-[5-Methyl-1-(2-methylpropyl)-1H-indol-3-yl]-N-(phenylsulfonyl)-1,3-oxazole-4-carboxamide]		
	Cc1cc(Cl)ccc1S(=O)(=O)NC[C@H]1C2CCC(CC2)[C@@H]1/C=C\CCCC(=O)O [ONO-8711]	reduces hyperalgesia and allodynia	inhibits mechanical hyperalgesia
